Experimental findings from EPA's ToxValDB 9.5 (doi:10.2903/j.efsa.2012.2921) are described below.

One series has as its system Bibionidae. To be noted: chronic/long-term; duration: 28 days.
Another series concerns Tagia sp. Conditions: acute; duration: 14 days; mortality.
The test system of the next series is Rattus norvegicus. Conditions: for NOAEL: no effects.
In a further series the test system is Folsomia candida. Conditions: chronic/long-term.
In another series the test system is Daphnia magna. To be noted: chronic/long-term; duration: 21 days; reproduction.
For the next series, the system named is Apis mellifera. To be noted: acute, mortality.
Another series relates to Oryctolagus sp. To be noted: reproduction developmental; no effects.
The subject of a further series is Oncorhynchus mykiss. Conditions: acute; duration: 96 hours; mortality.
The subject of the next series is Canidae. Conditions: chronic; duration: 1 years; oral; Dog Other; no effects.
Another series relates to Pimephales promelas. To be noted: chronic/long-term; duration: 33 days; growth.
In the next series the test system is Mus musculus. To be noted: no effects.
Where [1] appears, read: subchronic, duration: 90 days, oral.

“And” between values parts separate entries of the source, which are not always exact repeats. Equal values may be shown once.

As to `CCCCCCCCc1c(CC)nc2ncnn2c1N` [Ametoctradin], the LC50 is above 758 mg/kg-day with Colinus virginianus (acute, oral, diet, mortality); above 1000 mg/kg in the series on Tagia sp.; above 0.0646 mg/L in the series with Oncorhynchus mykiss; above 1550 mg/kg-day in the series on Anas platyrhynchos (short-term, oral, feed, mortality). Moreover, the LD50 in the series with Colinus virginianus (acute, oral, mortality) was above 2000 mg/kg-day; in the series on Rattus norvegicus (acute, oral, mortality), above 2000 mg/kg-day; with Apis mellifera (dermal) it was above 100 µg/piece; in the series with Apis mellifera (oral, unspecified), above 112 µg/piece; in the series with Anas platyrhynchos (acute, oral, unspecified, mortality), above 2000 mg/kg-day. For the same compound, the NOEC with Colinus virginianus (reproduction developmental) was at least 115 mg/kg-day; with Bibionidae, 222 mg/kg; in the series on Folsomia candida, at least 268 mg/kg; in the series with Daphnia magna, 0.044 mg/L; in the series with Pimephales promelas, 0.048 mg/L; in the series with Anas platyrhynchos (reproductive), at least 188 mg/kg-day. For the same compound, the NOAEL is 871 mg/kg-day in the series on Rattus norvegicus (chronic, duration: 2 years); ≥ 939 mg/kg-day and 1000 mg/kg-day in the series on Rattus norvegicus (reproduction developmental); 1080 mg/kg-day in the series on Rattus norvegicus (setting [1]); 1000 mg/kg-day in the series on Oryctolagus sp.; 848 mg/kg-day in the series with Canidae; 1100 mg/kg-day with Mus musculus (chronic, duration: 18 months). For the same compound, in the series with Mus musculus (setting [1]), the no observed adverse effect level (NOAEL) worked out at 1120 mg/kg-day.
